According to BindingDB's records for doi:10.1016/j.bmcl.2007.12.050 (Neurogen, 2008):

Assay: Antagonist activity at CRF1 receptor expressed in mouse AtT20 cells assessed as inhibition of sauvagine-stimulated cAMP accumulation

Ki: 12 nM
Compound: CCCN(CCC)c1c(C)nc(-c2c(C)cc(C)cc2OC)c2ccccc12 [1-(2-methoxy-4,6-dimethylphenyl)-3-methyl-N,N-dipropylisoquinolin-4-amine]
